Data published in patent publication US6737383B1, “Herbicidal oxadiazolidines” (priority 1999, dated 2004).

Key:
surinam grass [1] = experiment: Test C postemergence surinam grass; assay type: in vivo, Brachiaria decumbens; conditions: 0 to 100 scale, 0 no effect, 100 complete control
Procedure, shortened: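 Scores (0 = no effect, 100 = complete control) come from visual comparison with untreated controls after about 14–21 days. Spray formulation was a non-phytotoxic solvent mixture including surfactant; plants grew in a 60:40 sandy loam–potting mix blend.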

Alexandergrass = experiment: Test D Alexandergrass; assay type: in vivo, Brachiaria plantaginea; conditions: Preemergence, 0 to 100 scale
Procedure, shortened: (§1)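 Herbicide screen in the greenhouse. A non-phytotoxic solvent mixture with surfactant carried the test chemical; in pre-emergence tests it went onto the soil of pots seeded no more than a day earlier. Injury was scored by eye 14 to 21 days after application, 0 to 100.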

common pursiane = experiment: Test D common purslane; assay type: in vivo, Portulaca oleracea; conditions: Preemergence, 0 to 100 scale
Procedure, shortened: as §1

common ragweed = experiment: Test D common ragweed; assay type: in vivo, Ambrosia elatior; conditions: Preemergence, 0 to 100 scale
Procedure, shortened: as §1

common groundsel = experiment: Test D common groundsel; assay type: in vivo, Senecio vulgaris; conditions: Preemergence, 0 to 100 scale
Procedure, shortened: as §1

dallisgrass = experiment: Test D dallisgrass; assay type: in vivo, Paspalum dilatatum; conditions: Preemergence, 0 to 100 scale
Procedure, shortened: as §1

goosegrass = experiment: Test D goosegrass; assay type: in vivo, Eleusine indica; conditions: Preemergence, 0 to 100 scale
Procedure, shortened: as §1

guineagrass = experiment: Test D guineagrass; assay type: in vivo, Panicum maximum; conditions: Preemergence, 0 to 100 scale
Procedure, shortened: as §1

Johnson grass = experiment: Test D Johnson grass; assay type: in vivo, Sorghum halepense; conditions: Preemergence, 0 to 100 scale
Procedure, shortened: as §1

large crabgrass = experiment: Test D large crabgrass; assay type: in vivo, Digitaria sanguinalis; conditions: Preemergence, 0 to 100 scale
Procedure, shortened: as §1

purple nutsedge = experiment: Test D purple nutsedge; assay type: in vivo, Cyperus rotundus; conditions: Preemergence, 0 to 100 scale
Procedure, shortened: as §1

sandbur = experiment: Test D sandbur; assay type: in vivo, Cenchrus echinatus; conditions: Preemergence, 0 to 100 scale
Procedure, shortened: as §1

surinam grass [2] = experiment: Test D surinam grass; assay type: in vivo, Brachiaria decumbens; conditions: Preemergence, 0 to 100 scale
Procedure, shortened: as §1

tall mallow = experiment: Test D tall mallow; assay type: in vivo, Malva sylvestris; conditions: Preemergence, 0 to 100 scale
Procedure, shortened: as §1

Green foxtail = experiment: Test D green foxtail; assay type: in vivo; conditions: Preemergence, 0 to 100 scale
Procedure, shortened: as §1

[3] = Rate 16 g/ha, 0 no injury, 100 complete control
[4] = Rate 32 g/ha, 0 no injury, 100 complete control
[5] = Rate 64 g/ha, 0 no injury, 100 complete control
[6] = Rate 125 g/ha, 0 no injury, 100 complete control

CC(C)N(C(=O)n1oc(=O)n(Cc2cccs2)c1=O)c1ccccc1 [Compound 103]
Plant response rating, Surinam grass (surinam grass [1]; Rate 140 g/ha): 0
Plant response rating, Surinam grass (surinam grass [1]; Rate 280 g/ha): 0
Plant response rating, Surinam grass (surinam grass [1]; Rate 560 g/ha): 0
Plant response rating, Surinam grass (surinam grass [1]; Rate 1120 g/ha): 5
Plant response rating, Alexandergrass (Alexandergrass; [3]): 0
Plant response rating, Alexandergrass (Alexandergrass; [4]): 0
Plant response rating, Alexandergrass (Alexandergrass; [5]): 0
Plant response rating, Alexandergrass (Alexandergrass; [6]): 40
Plant response rating, Alexandergrass (Alexandergrass; Rate 250 g/ha): 85
Plant response rating, Alexandergrass (Alexandergrass; Rate 500 g/ha): 95
Plant response rating, C. purslane (common pursiane; [3]): 0
Plant response rating, C. purslane (common pursiane; [4]): 0
Plant response rating, C. purslane (common pursiane; [5]): 0
Plant response rating, C. purslane (common pursiane; [6]): 0
Plant response rating, C. purslane (common pursiane; Rate 250 g/ha): 0
Plant response rating, C. purslane (common pursiane; Rate 500 g/ha): 0
Plant response rating, C. ragweed (common ragweed; [3]): 0
Plant response rating, C. ragweed (common ragweed; [4]): 0
Plant response rating, C. ragweed (common ragweed; [5]): 0
Plant response rating, C. ragweed (common ragweed; [6]): 0
Plant response rating, C. ragweed (common ragweed; Rate 250 g/ha): 0
Plant response rating, C. ragweed (common ragweed; Rate 500 g/ha): 0
Plant response rating, Com. groundsel (common groundsel; [3]): 0
Plant response rating, Com. groundsel (common groundsel; [4]): 0
Plant response rating, Com. groundsel (common groundsel; [5]): 0
Plant response rating, Com. groundsel (common groundsel; [6]): 0
Plant response rating, Com. groundsel (common groundsel; Rate 250 g/ha): 0
Plant response rating, Com. groundsel (common groundsel; Rate 500 g/ha): 0
Plant response rating, Dallisgrass (dallisgrass; [3]): 10
Plant response rating, Dallisgrass (dallisgrass; [4]): 20
Plant response rating, Dallisgrass (dallisgrass; [5]): 45
Plant response rating, Dallisgrass (dallisgrass; [6]): 65
Plant response rating, Dallisgrass (dallisgrass; Rate 250 g/ha): 98
Plant response rating, Dallisgrass (dallisgrass; Rate 500 g/ha): 100
Plant response rating, Goosegrass (goosegrass; [3]): 0
Plant response rating, Goosegrass (goosegrass; [4]): 30
Plant response rating, Goosegrass (goosegrass; [5]): 65
Plant response rating, Goosegrass (goosegrass; [6]): 85
Plant response rating, Goosegrass (goosegrass; Rate 250 g/ha): 98
Plant response rating, Goosegrass (goosegrass; Rate 500 g/ha): 100
Plant response rating, Guineagrass (guineagrass; [3]): 0
Plant response rating, Guineagrass (guineagrass; [4]): 0
Plant response rating, Guineagrass (guineagrass; [5]): 0
Plant response rating, Guineagrass (guineagrass; [6]): 85
Plant response rating, Guineagrass (guineagrass; Rate 250 g/ha): 90
Plant response rating, Guineagrass (guineagrass; Rate 500 g/ha): 100
Plant response rating, Johnsongrass (Johnson grass; [3]): 0
Plant response rating, Johnsongrass (Johnson grass; [4]): 0
Plant response rating, Johnsongrass (Johnson grass; [5]): 0
Plant response rating, Johnsongrass (Johnson grass; [6]): 0
Plant response rating, Johnsongrass (Johnson grass; Rate 250 g/ha): 0
Plant response rating, Johnsongrass (Johnson grass; Rate 500 g/ha): 40
Plant response rating, Large crabgrass (large crabgrass; [3]): 0
Plant response rating, Large crabgrass (large crabgrass; [4]): 0
Plant response rating, Large crabgrass (large crabgrass; [5]): 85
Plant response rating, Large crabgrass (large crabgrass; [6]): 95
Plant response rating, Large crabgrass (large crabgrass; Rate 250 g/ha): 98
Plant response rating, Large crabgrass (large crabgrass; Rate 500 g/ha): 100
Plant response rating, Purple nutsedge (purple nutsedge; [3]): 0
Plant response rating, Purple nutsedge (purple nutsedge; [4]): 0
Purple nutsedge plant response rating (purple nutsedge; [5]): 0
Purple nutsedge plant response rating (purple nutsedge; [6]): 0
Plant response rating, Purple nutsedge (purple nutsedge; Rate 250 g/ha): 0
Plant response rating, Purple nutsedge (purple nutsedge; Rate 500 g/ha): 10
Plant response rating, Sandbur (sandbur; [3]): 0
Plant response rating, Sandbur (sandbur; [4]): 0
Sandbur plant response rating (sandbur; [5]): 0
Sandbur plant response rating (sandbur; [6]): 0
Plant response rating, Sandbur (sandbur; Rate 250 g/ha): 75
Plant response rating, Sandbur (sandbur; Rate 500 g/ha): 100
Plant response rating, Surinam grass (surinam grass [2]; [3]): 0
Plant response rating, Surinam grass (surinam grass [2]; [4]): 0
Surinam grass plant response rating (surinam grass [2]; [5]): 0
Surinam grass plant response rating (surinam grass [2]; [6]): 0
Plant response rating, Surinam grass (surinam grass [2]; Rate 250 g/ha): 0
Plant response rating, Surinam grass (surinam grass [2]; Rate 500 g/ha): 40
Plant response rating, Tall Mallow (tall mallow; [3]): 0
Plant response rating, Tall Mallow (tall mallow; [4]): 0
Tall Mallow plant response rating (tall mallow; [5]): 0
Tall Mallow plant response rating (tall mallow; [6]): 0
Plant response rating, Tall Mallow (tall mallow; Rate 250 g/ha): 0
Plant response rating, Tall Mallow (tall mallow; Rate 500 g/ha): 0
Plant response rating, Green foxtail (Green foxtail; Rate 250 g/ha): 100
Plant response rating, Green foxtail (Green foxtail; Rate 500 g/ha): 100
